Molecules are shown by their SMILES.

One data set has as its system wild type mice. Description: Regional cerebral blood flow (rCBF) by laser-Doppler flowimetry after L-arginine infusion, wild type and simvastatin-treated mice. Type of data set: in vivo. The text has this:
(§1) The number of mice in each group is indicated in parenthesis.

The conditions of data set [1]: mouse, in vivo.
Data set [2] in a line: Uptake of tritium labeled Dizocilpine in MCA territory after MCA occlusion (Example 6, autoradiography). In kind it is in vivo, mice. To be noted: L-arginine 400 mg/kg infusion over 10 min acutely or Simvastatin SC 3 weeks, Example 6 written in present tense. The procedure: 4 groups of mice receive the following treatments by SQ administration for 3 weeks, followed on day 22 by a surgery where an MCA occlusion is induced by an insertion of a modified 8-0 suture. […] Thereafter the mice are sacrificed at 15 and 30 minutes, and the brain tissue is frozen and sectioned and then analyzed by autoradiographic methods to quantitate the amount of radiolabeled compound present within the MCA territory on the side of occlusion.
1) 2 groups of saline SC injection over 3 weeks
a) 1 group after surgery received radio labeled Dizocilpine
2) 2 groups of Simvastain SC injection over 3 weeks

Data set [3] relates to mutant mice deficient in endothelial nitric oxide synthase (eNOS null). Description: Regional cerebral blood flow (rCBF) by laser-Doppler flowimetry after L-arginine infusion, eNOS null mice. In kind it is in vivo. Particulars: L-arginine 450 mg/kg i.v.
Source text: as §1

[4] abbreviates: L-arginine infusion in simvastatin-treated mice.
[5] abbreviates: wild type mice, L-arginine 450 mg/kg i.v.

Consider `CCC(C)(C)C(=O)O[C@H]1C[C@@H](C)C=C2C=C[C@H](C)[C@H](CC[C@@H]3C[C@@H](O)CC(=O)O3)[C@H]21` [simvastatin], for which the “increase of baseline rCBF” value in the data set on wild type mice (after chronic daily administration of simvastatin alone) worked out at 25%.
For `N=C(N)NCCC[C@H](N)C(=O)O` [L-arginine], the “blood pH after infusion (in words)” value in data set [1] is recorded as “lower”. Further, the “uptake of Dizocilpine within the underperfused brain” value in data set [2] is on record as “higher uptake”. Besides, the “elevations in regional cerebral blood flow (RCBF)” value with wild type mice (L-arginine 300 mg/kg i.v., preliminary experiments n=4, modest and variable) is 10%. For the same compound, in the data set on wild type mice (setting [4]), the “additional time for which rCBF increases sustained” value worked out at 20 min and the “time of maximum rCBF increase” value was 15 to 20 min. Further, the “maximum rCBF increase over simvastatin baseline” value with wild type mice (L-arginine infusion in simvastatin-treated mice, at 15-20 min) is recorded as 29-31%. In the data set with wild type mice (L-arginine infusion, P<0.05), the “increase in blood flow in the 30-40 minute epoch, simvastatin treated compared to non treated control” value is on record as “larger”. In addition, in the data set with wild type mice (setting [5]), the “time at which increase in RCBF began” value was 5 to 10 min and the “time of maximum rCBF values” fell in the range of 20 to 25 min. Besides, the “time at which RCBF increase achieved statistical significance” value with wild type mice (wild type mice, L-arginine 450 mg/kg i.v., after infusion) was 10 to 15 min. For the same compound, in the data set on wild type mice (wild type mice, L-arginine 450 mg/kg i.v., parietal cortex, at 20-25 min), the “maximum rCBF increase above baseline” value was 26%. Further, in data set [3], the “rCBF change during the 40 minute recording period” value is given as −4 to +5% and the “rCBF response (in words)” value is listed as “did not increase rCBF”.
